Test results taken from publication PMC12281142, “A potent phenylalkylamine disrupts mycobacterial membrane bioenergetics and augments bactericidal activity of bedaquiline” (iScience, 2025).
Values after ≈ are worked out from the molar mass of the structure shown. Values joined by “and” are separate entries in the source; they are usually repeats but may differ in a detail not shown here. Identical values can stand only once. Like-named read-outs stand apart in the source and are kept apart here.

Assays:
cat papillary muscle = settings: cited from earlier work
M. bovis BCG [1] = format: cell-based, Mycobacterium bovis BCG; settings: 2x MIC90BCG, 6 h time point, cultures still viable
M. bovis BCG [2] = format: cell-based, Mycobacterium bovis BCG; settings: 2XMIC90BCG (1.1 mM, 500 μg/mL)
Mab complex = test: MIC against Mab complex (summary over the 3 subspecies); format: cell-based, Mycobacterium abscessus; settings: Mycobacteroides abscessus; range over subspecies
[3] = tested on: Mab massiliense CCUG 48898-T; test: MIC against Mab massiliense CCUG 48898-T; format: cell-based, Mycobacterium abscessus subsp. massiliense; settings: Mycobacteroides abscessus; for MIC50: CCUG48898, 72 h, 3 days
HepG2 = test: Cytotoxicity in HepG2 cells; format: cell-based, human; settings: Homo sapiens, HepG2; 48 h, growth suppressed by 50% vs untreated
Experimental: (§1) To each well in a 96-well plate, 50,000 cells in 100 μL media were seeded. Vero E6 and HepG2 cells were incubated overnight in DMEM for cell adherence at 37°C and 5% CO2. The media was removed from the wells and 100 μL solution made up of fresh DMEM media (99 μL) and the test compound (1 μL from a DMSO stock solution that was […] more concentrated than the final concentration in the well) was then added to each well. DMSO content of each well was consistently kept at 0.5 %v/v. Treated plates were incubated for 48 h (5% CO2, 37°C), after which 10 μL of Celltitre 96 Aqueous One Solution was added to each well, without removal of media, and incubated for a further 3 h. Subsequently, absorbance readings were taken at 490 nm on a Tecan GENios Microplate Reader.
(§2) Cell viability was determined from the expression: Cellviability(%)={[Absorbance(cells+cpd)−Absorbance(cpd)]/[Absorbance(cells+vc)−Absorbance(vc)]}×100% where Absorbance (cells + cpd) = absorbance of wells containing cells and test compound in vehicle (media +0.5% DMSO); Absorbance (cpd) = absorbance of wells containing test compound in vehicle without cells (compound control); Absorbance (cells + vc) = absorbance of wells containing cells in vehicle (vc) only (untreated cells); Absorbance (vc) = absorbance of wells containing vehicle without cells (vehicle control). The percentage viability readings were plotted against log(concentration) on GraphPad Prism (Version 7.0, San Diego, CA) to give a sigmoidal curve, from which IC50, defined as the concentration of the compound that reduced cell viability by 50%, was obtained. At least 3 separate determinations were carried out.

M. bovis BCG [4] = test: microbe, parasite or virus in culture; format: cell-based, Mycobacterium bovis BCG; settings: Mycobacterium tuberculosis variant bovis BCG, BCG
Mtb H37Rv = test: MIC by broth microdilution against Mtb H37Rv; format: cell-based, Mycobacterium tuberculosis; settings: Mycobacterium tuberculosis, H37RV
Mab abscessus ATCC 19977 = test: MIC against Mab abscessus ATCC 19977; format: cell-based, Mycobacterium abscessus subsp. abscessus; settings: Mycobacteroides abscessus; for MIC50: ATCC19977, 72 h, 3 days
Vero E6 = test: Cytotoxicity in Vero E6 cells; format: cell-based, African green monkey; settings: Chlorocebus sabaeus, Vero C1008, 48 h, growth suppressed by 50% vs untreated
Experimental: as §1, §2

mycobacterial growth = settings: cited from earlier work
[5] = tested on: Mab bolletii CCUG 50184-T; test: MIC against Mab bolletii CCUG 50184-T; format: cell-based, Mycobacterium abscessus subsp. bolletii; settings: Mycobacteroides abscessus; for MIC50: CCUG50184, 72 h, 3 days
[6] = tested on: nonreplicating M. bovis BCG; format: cell-based, Mycobacterium bovis BCG; settings: 4x MIC90BCG, 5 days, Wayne model
[7] = 7H9 medium (first value of cell)
[8] = CA-MHB medium (second value of cell)

SMILES: COc1ccc(CCN(C)CCCC(C#N)(c2ccc(OC)c(OC)c2)C(C)C)cc1OC (stereo not drawn) [VP, verapamil, reference compound]
- ED50 (concentration to reduce maximal contractility of the papillary muscle by 50%) (cat papillary muscle): 3.5 µM
- membrane depolarization (M. bovis BCG [1]): depolarization was evident
- time to reduce the CFU count to the detection limit (M. bovis BCG [2]): 14 days
- MIC50 (Mab complex): 500 to 564 µg/mL (≈ 1100 to 1240 µM)
- MIC90 ([3]; CCUG48898, 7H9 broth (first value)): 2250 µM (≈ 1020 µg/mL)
- MIC50 [3, 7]: 1100 µM (≈ 500 µg/mL)
- MIC50 [3, 8]: 1150 µM (≈ 523 µg/mL)
- MIC90 ([3]; CCUG48898, camH broth (second value)): > 2500 µM
- IC50 (HepG2): 504 µM
- MIC50 (M. bovis BCG [4]; 120 h, read-out: MIC50 BCG With Glycerol, 7H9 broth with glycerol, 5 days): 210 µM
- MIC50 (M. bovis BCG [4]; 120 h, read-out: MIC50 BCG Without Glycerol, 7H9 broth without glycerol, 5 days): 450 µM
- MIC50 (M. bovis BCG [4]; M. bovis BCG, broth dilution, growth reduced by 50% vs untreated): 210 µM
- MIC90 (M. bovis BCG [4]; M. bovis BCG, broth dilution, growth reduced by 90% vs untreated): 550 µM
- MIC50 (M. bovis BCG [4]; read-out: MIC50 BCG, 7H9 with glycerol): 96 µg/mL
- MIC50 (M. bovis BCG [4]; read-out: MIC50 BCG, 7H9 without glycerol): 205 µg/mL
- MIC90 (M. bovis BCG [4]; read-out: MIC90 (Table S1), M. bovis BCG, broth dilution): 550 µM
- MIC90 (M. bovis BCG [4]; read-out: MIC90 BCG, M. bovis BCG): 250 µg/mL
- MIC50 (Mtb H37Rv; 120 h, read-out: MIC50 Mtb H37Rv): 241 µM
- MIC90 (Mtb H37Rv; 120 h, second value of cell MIC50/MIC90, incubation 5 days, read-out: MIC90 Mtb H37Rv): 540 µM
- MIC50 (Mtb H37Rv; read-out: MIC50 Mtb): 110 µg/mL
- MIC90 (Mtb H37Rv; read-out: MIC90 Mtb): 246 µg/mL
- MIC90 (Mab abscessus ATCC 19977; ATCC19977, 7H9 broth (first value), read-out: MIC90 Mab abscessus ATCC 19977): 2400 µM (≈ 1090 µg/mL)
- MIC50 (Mab abscessus ATCC 19977; [7]): 1290 µM (≈ 586 µg/mL)
- MIC50 (Mab abscessus ATCC 19977; [8]): 1200 µM (≈ 546 µg/mL)
- MIC90 (Mab abscessus ATCC 19977; ATCC19977, Mab abscessus, read-out: MIC90 abscessus): 2400 µM and 1100 µg/mL
- MIC90 (Mab abscessus ATCC 19977; ATCC19977, camH broth (second value), read-out: MIC90 Mab abscessus ATCC 19977): > 2500 µM
- IC50 (Vero E6): 543 µM
- concentration to inhibit mycobacterial growth (mycobacterial growth): ~500 μM and ~227 μg/mL
- MIC90 ([5]; CCUG50184, 7H9 broth (first value)): 2200 µM (≈ 1000 µg/mL)
- MIC50 [5, 7]: 1450 µM (≈ 659 µg/mL)
- MIC50 [5, 8]: 1250 µM (≈ 568 µg/mL)
- MIC90 ([5]; CCUG50184, camH broth (second value)): > 2500 µM
- kill of hypoxic M. bovis BCG [6]: 10^2 fold
